Data on five compounds can be found in ChEMBL document CHEMBL1144677, “Novel quinazolinone derivatives as 5-HT7 receptor ligands” (Bioorg Med Chem, 2008).

The target in assay [1] is 5-hydroxytryptamine receptor 2A (Homo sapiens, UniProt P28223).
Description: Binding affinity at 5HT2A receptor
For assay [2], the target named is T1, 5-hydroxytryptamine receptor 2C (Homo sapiens, UniProt P28335).
T1 sequence (P28335 whole entry): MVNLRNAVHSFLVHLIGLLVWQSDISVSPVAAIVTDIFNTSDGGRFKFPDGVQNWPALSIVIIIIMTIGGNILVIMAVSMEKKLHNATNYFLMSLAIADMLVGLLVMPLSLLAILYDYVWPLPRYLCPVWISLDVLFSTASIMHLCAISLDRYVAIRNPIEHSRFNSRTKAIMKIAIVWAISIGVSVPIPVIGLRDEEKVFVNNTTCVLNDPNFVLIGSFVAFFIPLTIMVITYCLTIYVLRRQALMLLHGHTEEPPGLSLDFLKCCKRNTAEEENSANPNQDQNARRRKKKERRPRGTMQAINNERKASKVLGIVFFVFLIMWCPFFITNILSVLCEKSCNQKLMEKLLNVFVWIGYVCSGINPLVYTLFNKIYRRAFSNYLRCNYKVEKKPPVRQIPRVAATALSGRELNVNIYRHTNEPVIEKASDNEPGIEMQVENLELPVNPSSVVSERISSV
Description: Binding affinity at 5HT2C receptor

Assay [3] concerns the target D(2) dopamine receptor (Homo sapiens, UniProt P14416).
Description: Binding affinity at dopamine D2 receptor
In assay [4] the target is T2, 5-hydroxytryptamine receptor 1A (Homo sapiens, UniProt P08908).
T2 sequence (P08908 whole entry): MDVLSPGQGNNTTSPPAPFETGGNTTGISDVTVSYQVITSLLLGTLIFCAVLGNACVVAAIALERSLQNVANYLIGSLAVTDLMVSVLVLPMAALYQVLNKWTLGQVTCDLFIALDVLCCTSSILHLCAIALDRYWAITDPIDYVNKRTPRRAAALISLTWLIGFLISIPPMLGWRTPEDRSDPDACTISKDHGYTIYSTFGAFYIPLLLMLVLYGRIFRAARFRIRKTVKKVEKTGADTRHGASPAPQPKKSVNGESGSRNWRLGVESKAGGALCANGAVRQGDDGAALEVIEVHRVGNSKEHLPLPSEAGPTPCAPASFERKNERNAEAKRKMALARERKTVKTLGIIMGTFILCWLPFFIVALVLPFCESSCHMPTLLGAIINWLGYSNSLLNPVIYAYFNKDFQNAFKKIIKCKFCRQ
Description: Binding affinity at 5HT1A receptor

Sequence of D(2) dopamine receptor (P14416 whole entry): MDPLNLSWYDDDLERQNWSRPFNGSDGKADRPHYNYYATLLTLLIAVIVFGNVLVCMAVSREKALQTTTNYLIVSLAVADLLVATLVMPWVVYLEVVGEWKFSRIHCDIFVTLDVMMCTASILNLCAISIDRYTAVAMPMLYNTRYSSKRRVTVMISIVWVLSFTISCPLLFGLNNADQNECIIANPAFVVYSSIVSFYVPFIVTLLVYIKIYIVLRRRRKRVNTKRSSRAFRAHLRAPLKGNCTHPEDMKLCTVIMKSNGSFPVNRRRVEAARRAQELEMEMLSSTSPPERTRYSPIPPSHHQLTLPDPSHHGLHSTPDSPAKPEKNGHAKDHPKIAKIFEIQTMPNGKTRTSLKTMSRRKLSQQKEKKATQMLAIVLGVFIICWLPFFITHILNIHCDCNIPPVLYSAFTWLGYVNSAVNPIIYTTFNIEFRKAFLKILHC
Sequence of 5-hydroxytryptamine receptor 2A (P28223 whole entry): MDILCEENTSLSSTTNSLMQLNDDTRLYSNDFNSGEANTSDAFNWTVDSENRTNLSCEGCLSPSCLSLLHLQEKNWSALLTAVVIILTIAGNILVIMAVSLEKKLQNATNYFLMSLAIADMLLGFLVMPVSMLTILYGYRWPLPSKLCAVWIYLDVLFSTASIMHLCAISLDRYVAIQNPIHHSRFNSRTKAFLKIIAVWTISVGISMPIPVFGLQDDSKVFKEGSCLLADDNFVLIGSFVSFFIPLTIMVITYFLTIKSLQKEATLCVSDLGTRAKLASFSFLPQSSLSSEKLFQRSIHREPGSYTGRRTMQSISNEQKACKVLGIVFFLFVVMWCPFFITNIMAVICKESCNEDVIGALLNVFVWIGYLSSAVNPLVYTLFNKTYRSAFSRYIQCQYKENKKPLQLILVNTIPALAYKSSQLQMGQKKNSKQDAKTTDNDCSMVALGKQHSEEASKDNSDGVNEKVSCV

Take `COc1ccccc1N1CCN(CCCC(=O)NCc2nc3ccc(F)cc3c(=O)n2-c2ccccc2)CC1`: the IC50 in assay [1] is more than 10000 nM; in assay [2] it was 220 nM; in assay [3], 5300 nM; in assay [4], 960 nM.
With `Cc1cccc(N2CCN(CCCC(=O)NCc3nc4ccc(F)cc4c(=O)n3-c3ccccc3)CC2)c1C`, the IC50 in assay [1] is 420 nM; in assay [2], 80 nM; in assay [3] it was 4000 nM; in assay [4], 220 nM.
On to `O=C(CCCN1CCN(c2cccc(C(F)(F)F)c2)CC1)NCc1nc2cc(F)ccc2c(=O)n1-c1ccccc1`, for which the IC50 in assay [1] was found to be 620 nM; in assay [2] it was 1300 nM; in assay [3], 6600 nM; in assay [4], 140 nM.
Consider `CCOc1ccccc1N1CCN(CCCC(=O)NCc2nc3ccc(F)cc3c(=O)n2-c2ccccc2)CC1`, for which the IC50 in assay [1] was more than 10000 nM; in assay [2], 1600 nM; in assay [3], 1000 nM; in assay [4] it was 500 nM.
For the compound `Cc1cccc(N2CCN(CCCC(=O)NCc3nc4ccccc4c(=O)n3-c3ccccc3)CC2)c1C`, the results for the IC50 in assay [1], in assay [3] and in assay [4] were 1100 nM, 6900 nM and 500 nM, respectively.

As usually defined, the IC50 is the point on the concentration scale where inhibition reaches its midpoint. High values mean lower potency, low ones higher potency.
